Test system: 931267-113-T-J1-PDC KRAS spheroid with HUVEC/MSC, viability
Assay: Anticancer human tumor 931267-113-T-J1-PDC patient-derived colon adenocarcinoma cell line growth inhibition [KRAS2]
Details: for IC50: curve of first compound; for viability, T/C: stronger effect = lower value
In short: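 KRAS-mutant tumor cells were grown as spheroids with HUVEC endothelial cells and human MSCs as stroma. Targeted agents were tested alone and with KRAS pathway inhibitors. Doses started at or near clinical Cmax, or 10 microM, descending half-log.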

[1] = second compound 0.1 µM, first compound 0.000316 µM
[2] = second compound 0.1 µM, first compound 0.001 µM
[3] = second compound 0.1 µM, first compound 0.00316 µM
[4] = second compound 0.1 µM, first compound 0.01 µM
[5] = second compound 0.1 µM, first compound 0.0316 µM
[6] = second compound 0.1 µM, first compound 0.1 µM
[7] = second compound 0.316 µM, first compound 0.000316 µM
[8] = second compound 0.316 µM, first compound 0.001 µM
[9] = second compound 0.316 µM, first compound 0.00316 µM
[10] = second compound 0.316 µM, first compound 0.01 µM
[11] = second compound 0.316 µM, first compound 0.0316 µM
[12] = second compound 0.316 µM, first compound 0.1 µM
[13] = second compound 1 µM, first compound 0.000316 µM
[14] = second compound 1 µM, first compound 0.001 µM
[15] = second compound 1 µM, first compound 0.00316 µM
[16] = second compound 1 µM, first compound 0.01 µM
[17] = second compound 1 µM, first compound 0.0316 µM
[18] = second compound 1 µM, first compound 0.1 µM
[19] = second compound 3.16 µM, first compound 0.000316 µM
[20] = second compound 3.16 µM, first compound 0.001 µM
[21] = second compound 3.16 µM, first compound 0.00316 µM
[22] = second compound 3.16 µM, first compound 0.01 µM
[23] = second compound 3.16 µM, first compound 0.0316 µM
[24] = second compound 3.16 µM, first compound 0.1 µM
[25] = second compound 10 µM, first compound 0.000316 µM
[26] = second compound 10 µM, first compound 0.001 µM
[27] = second compound 10 µM, first compound 0.00316 µM
[28] = second compound 10 µM, first compound 0.01 µM
[29] = second compound 10 µM, first compound 0.0316 µM
[30] = second compound 10 µM, first compound 0.1 µM
[31] = second compound 0.1 µM, first compound 0.316 µM
[32] = second compound 0.1 µM, first compound 1 µM
[33] = second compound 0.1 µM, first compound 3.16 µM
[34] = second compound 0.1 µM, first compound 10 µM
[35] = second compound 0.316 µM, first compound 0.316 µM
[36] = second compound 0.316 µM, first compound 1 µM
[37] = second compound 0.316 µM, first compound 3.16 µM
[38] = second compound 0.316 µM, first compound 10 µM
[39] = second compound 1 µM, first compound 0.316 µM
[40] = second compound 1 µM, first compound 1 µM
[41] = second compound 1 µM, first compound 3.16 µM
[42] = second compound 1 µM, first compound 10 µM
[43] = second compound 3.16 µM, first compound 0.316 µM
[44] = second compound 3.16 µM, first compound 1 µM
[45] = second compound 3.16 µM, first compound 3.16 µM
[46] = second compound 3.16 µM, first compound 10 µM
[47] = second compound 10 µM, first compound 0.316 µM
[48] = second compound 10 µM, first compound 1 µM
[49] = second compound 10 µM, first compound 3.16 µM
[50] = second compound 10 µM, first compound 10 µM
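Also: compound exposure lasted 7 days before the readout.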
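For viability, T/C in this document: 100% = DMSO vehicle control viability.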

Row | Compound | IC50 (second compound 0.1 µM) | IC50 (second compound 0.316 µM) | IC50 (second compound 1 µM) | IC50 (second compound 3.16 µM) | IC50 (second compound 10 µM) | viability, T/C [4] | viability, T/C [5] | viability, T/C [6] | viability, T/C [10] | viability, T/C [11] | viability, T/C [12] | viability, T/C [16] | viability, T/C [17] | viability, T/C [18] | viability, T/C [22] | viability, T/C [23] | viability, T/C [24] | viability, T/C [28] | viability, T/C [29] | viability, T/C [30] | other results
1 | CN(C)C/C=C/C(=O)Nc1cc2c(Nc3ccc(F)c(Cl)c3)ncnc2cc1O[C@H]1CCOC1 + COc1cc2nc(C)nc(NC(C)c3cc(N)cc(C(F)(F)F)c3)c2cc1OC1CCOC1 | > 100 nM | > 100 nM | > 100 nM | > 100 nM | > 100 nM | 87.5% | 103% | 116% | 87.6% | 85.2% | 93.5% | 89.8% | 100% | 94% | 74.9% | 97.2% | 108% | 88.6% | 102% | 83.7% | viability, T/C [1]: 96.2%; viability, T/C [2]: 92.8%; viability, T/C [3]: 75.7%; viability, T/C [7]: 81.8%; viability, T/C [8]: 75%; viability, T/C [9]: 90.3%; viability, T/C [13]: 87.7%; viability, T/C [14]: 92.5%; viability, T/C [15]: 104%; viability, T/C [19]: 72.8%; viability, T/C [20]: 72.8%; viability, T/C [21]: 88.1%; viability, T/C [25]: 69.6%; viability, T/C [26]: 78.8%; viability, T/C [27]: 77%
2 | CC1(C)CCC(CN2CCN(c3ccc(C(=O)NS(=O)(=O)c4ccc(NCC5CCOCC5)c([N+](=O)[O-])c4)c(Oc4cnc5[nH]ccc5c4)c3)CC2)=C(c2ccc(Cl)cc2)C1 + COc1cc2nc(C)nc(NC(C)c3cc(N)cc(C(F)(F)F)c3)c2cc1OC1CCOC1 | 2100 nM | 1950 nM | 1820 nM | 1650 nM | < 31.6 nM | – | 89% | 88.1% | – | 86.2% | 90.3% | – | 76.5% | 93.4% | – | 61.9% | 86.5% | – | 0.9% | 2.22% | viability, T/C [31]: 90.1%; viability, T/C [32]: 95.8%; viability, T/C [33]: 27.7%; viability, T/C [34]: 8.52%; viability, T/C [35]: 84%; viability, T/C [36]: 83%; viability, T/C [37]: 26.3%; viability, T/C [38]: 5.92%; viability, T/C [39]: 76.1%; viability, T/C [40]: 84.9%; viability, T/C [41]: 19.6%; viability, T/C [42]: 2.71%; viability, T/C [43]: 60.2%; viability, T/C [44]: 69.8%; viability, T/C [45]: 24.3%; viability, T/C [46]: 4.36%; viability, T/C [47]: 0.8%; viability, T/C [48]: 1.14%; viability, T/C [49]: 2.02%; viability, T/C [50]: 0.84%
3 | COc1cc(Nc2ncc3c(n2)-c2ccc(Cl)cc2C(c2c(F)cccc2OC)=NC3)ccc1C(=O)O + COc1cc2nc(C)nc(NC(C)c3cc(N)cc(C(F)(F)F)c3)c2cc1OC1CCOC1 | > 10000 nM | > 10000 nM | > 10000 nM | > 10000 nM | 53.9 nM | – | 102% | 85.6% | – | 86.5% | 93.5% | – | 85.6% | 79.8% | – | 90% | 91% | – | 75.5% | 7.27% | viability, T/C [31]: 80.7%; viability, T/C [32]: 79.5%; viability, T/C [33]: 87.8%; viability, T/C [34]: 57%; viability, T/C [35]: 75.3%; viability, T/C [36]: 72.4%; viability, T/C [37]: 57.9%; viability, T/C [38]: 54.3%; viability, T/C [39]: 86.3%; viability, T/C [40]: 78.7%; viability, T/C [41]: 66.5%; viability, T/C [42]: 58.9%; viability, T/C [43]: 82.9%; viability, T/C [44]: 83.1%; viability, T/C [45]: 79%; viability, T/C [46]: 49.6%; viability, T/C [47]: 13.8%; viability, T/C [48]: 12.1%; viability, T/C [49]: 64.3%; viability, T/C [50]: 4.17%
4 | CCN1CCN(Cc2ccc(Nc3ncc(F)c(-c4cc(F)c5nc(C)n(C(C)C)c5c4)n3)nc2)CC1 + COc1cc2nc(C)nc(NC(C)c3cc(N)cc(C(F)(F)F)c3)c2cc1OC1CCOC1 | 454 nM | 122 nM | 258 nM | 68 nM | < 3.16 nM | 86.8% | 62.5% | 74.7% | 90.1% | 72.2% | 51.2% | 78.1% | 76.3% | 56.4% | 67.2% | 49.7% | 48.8% | 1.83% | 2.06% | 3.4% | viability, T/C [3]: 86.4%; viability, T/C [31]: 45.5%; viability, T/C [32]: 45.9%; viability, T/C [9]: 80.6%; viability, T/C [35]: 47.2%; viability, T/C [36]: 37.4%; viability, T/C [15]: 78.7%; viability, T/C [39]: 53.2%; viability, T/C [40]: 42.7%; viability, T/C [21]: 74.5%; viability, T/C [43]: 42.4%; viability, T/C [44]: 27.1%; viability, T/C [27]: 3.71%; viability, T/C [47]: 1.38%; viability, T/C [48]: 0.23%
5 | CC(=O)Nc1cccc(-n2c(=O)n(C3CC3)c(=O)c3c(Nc4ccc(I)cc4F)n(C)c(=O)c(C)c32)c1 + CNCc1ccccc1-c1csc(C(C)Nc2nc(C)nc3cc(OC)c(OC)cc23)c1 | 9.09 nM | 6.7 nM | < 0.1 nM | < 0.1 nM | < 0.1 nM | 56% | 14.1% | – | 47.8% | 25.3% | – | 2.02% | 1.26% | – | 0.19% | 0.41% | – | 0.15% | 2.55% | – | viability, T/C (second compound 0.1 µM, first compound 0.0001 µM): 86.5%; viability, T/C [1]: 89.1%; viability, T/C [2]: 75.8%; viability, T/C [3]: 59.7%; viability, T/C (second compound 0.316 µM, first compound 0.0001 µM): 91.8%; viability, T/C [7]: 111%; viability, T/C [8]: 83.3%; viability, T/C [9]: 60.8%; viability, T/C (second compound 1 µM, first compound 0.0001 µM): 50.4%; viability, T/C [13]: 17%; viability, T/C [14]: 1.23%; viability, T/C [15]: 10.3%; viability, T/C (second compound 3.16 µM, first compound 0.0001 µM): 1.06%; viability, T/C [19]: 0.32%; viability, T/C [20]: 0.34%; viability, T/C [21]: 0.19%; viability, T/C (second compound 10 µM, first compound 0.0001 µM): 0.57%; viability, T/C [25]: 0.16%; viability, T/C [26]: 0.14%; viability, T/C [27]: 0.13%
6 | CC(=O)OC12COC1CC(O)C1(C)C(=O)C(O)C3=C(C)C(OC(=O)C(O)C(NC(=O)OC(C)(C)C)c4ccccc4)CC(O)(C(OC(=O)c4ccccc4)C21)C3(C)C (stereo not given) + COc1cc2nc(C)nc(NC(C)c3cc(N)cc(C(F)(F)F)c3)c2cc1OC1CCOC1 | > 3160 nM | > 3160 nM | > 3160 nM | > 3160 nM | > 3160 nM | 84.9% | 77.7% | 81.3% | 88% | 76.3% | 92% | 95% | 105% | 88.2% | 90% | 107% | 76.5% | 98% | 110% | 96.2% | viability, T/C [31]: 83.7%; viability, T/C [32]: 92.4%; viability, T/C [33]: 106%; viability, T/C [35]: 76.7%; viability, T/C [36]: 82.6%; viability, T/C [37]: 72.1%; viability, T/C [39]: 88%; viability, T/C [40]: 96.7%; viability, T/C [41]: 56.9%; viability, T/C [43]: 83.9%; viability, T/C [44]: 83.8%; viability, T/C [45]: 84.9%; viability, T/C [47]: 84.3%; viability, T/C [48]: 72.5%; viability, T/C [49]: 92%

Source: PubChem BioAssay AID1963863 (Molecular Pharmacology Branch, DTP, NCI, 2024)
